Reference: patent EP0942911B1, “BENZOPYRANOPYRROLE AND BENZOPYRANOPYRIDINE ALPHA-1 ADRENERGIC COMPOUNDS” (Abbott Laboratories, priority 1996, dated 1998)
Where a name gives a salt, the structure may show the parent alone. Read-outs that look alike come from different tables or passages of the source.

How the values were obtained:
Test in all cases: biochemical
[1] = molecular target: T1, α-1A adrenoreceptor (rat submaxillary gland) (Rattus norvegicus, UniProt P43140); type: binding; conditions: read-out: Radioligand Binding (Ki, nM) 1A (Rat)
T1 sequence (P43140 1-466): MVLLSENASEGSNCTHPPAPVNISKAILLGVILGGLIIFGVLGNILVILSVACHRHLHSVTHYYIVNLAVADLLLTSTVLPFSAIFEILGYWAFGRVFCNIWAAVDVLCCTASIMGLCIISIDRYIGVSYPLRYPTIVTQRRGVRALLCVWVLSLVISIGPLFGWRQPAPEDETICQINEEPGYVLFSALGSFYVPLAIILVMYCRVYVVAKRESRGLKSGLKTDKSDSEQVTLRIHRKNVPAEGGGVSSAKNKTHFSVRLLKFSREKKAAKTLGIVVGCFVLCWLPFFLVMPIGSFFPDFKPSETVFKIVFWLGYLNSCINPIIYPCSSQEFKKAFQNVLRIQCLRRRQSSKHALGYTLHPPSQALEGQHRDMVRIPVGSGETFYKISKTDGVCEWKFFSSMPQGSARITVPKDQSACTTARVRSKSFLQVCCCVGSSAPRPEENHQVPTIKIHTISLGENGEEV
Experimental: Additionally, binding affinity against the pharrnacologically defined α-1A adrenoreceptor (rat submaxillary gland) was measured.
(§1) On the fifth day of culture, growth medium was removed from cells grown in roller bottles, and the cells were washed twice with PBS (Sigma, 120 mM NaCl, 2.7 mM KCl, 10 mM Na2HPO4-NaH2PO4, pH = 7.4). Cells were detached from the roller bottles by incubating for 15 minutes at 37 °C in a Tris-EDTA solution (10 mM Tris, 100 mM NaCl, 1 mM EDTA, pH = 7.4). The cell suspension from each roller bottle was decanted into tared centrifuge tubes and kept on ice. An aliquot of each cell suspension was generally taken for cell counting. Cells were centrifuged at 3000 X G for 5 min at 2-4 °C, washed with PBS and recentrifuged. The supernatant was decanted and the pellet weighed to determine the wet weight of cells. Cells were washed a final time in 40 vol 5 mM Tris-HCl, 5 mM EDTA, pH = 7.7, and centrifuged at 40,000 X G for 10 minutes. Cells were homogenized in 10 mL of 50 mM Tris-HCl, 5 mM EDTA (pH = 7.4) and diluted to 40 mL/tube. Homogenates were centrifuged at 40,000 X G for 10 minutes. The supernatant was decanted and the pellets rehomogenized in 50 mM Tris-HCl (pH = 7.4) and centrifuged as before. The supernatant was decanted and the homogenate resuspended in 6.25 volumes (per gram wet weight) of 50 mM Tris-HCl and aliquots of the pooled homogenates frozen in liquid N2 and stored at -70 °C until the time of assay. Rat submaxillary glands were used for α-1A adrenoreceptors and were prepared essentially as described (Michel, A. D., Loury, D. N. and Whiting, R. L., Brit. J. Pharmacol. 98: 83-889 (1989)).
(§2) Receptor binding assays for α-1 adrenoreceptors were performed essentially as described by Greengrass and Bremner (Eur. J. Pharmacol. 55: 323-326 (1979)). […] Radioactivity was determined by standard liquid scintillation techniques. Data were analyzed as previously described (Hancock, A. A., Kyncl, J. J., Martin, Y. C. and DeBernardis, J. F., J. Receptor Res. 8: 23-46 (1988)).

[2] = molecular target: T2, α-1a adrenoreceptor (Bos taurus, UniProt P18130); type: binding, bovine; conditions: read-out: Radioligand Binding (Ki, nM) 1a (Bovine)
T2 sequence (P18130 1-466): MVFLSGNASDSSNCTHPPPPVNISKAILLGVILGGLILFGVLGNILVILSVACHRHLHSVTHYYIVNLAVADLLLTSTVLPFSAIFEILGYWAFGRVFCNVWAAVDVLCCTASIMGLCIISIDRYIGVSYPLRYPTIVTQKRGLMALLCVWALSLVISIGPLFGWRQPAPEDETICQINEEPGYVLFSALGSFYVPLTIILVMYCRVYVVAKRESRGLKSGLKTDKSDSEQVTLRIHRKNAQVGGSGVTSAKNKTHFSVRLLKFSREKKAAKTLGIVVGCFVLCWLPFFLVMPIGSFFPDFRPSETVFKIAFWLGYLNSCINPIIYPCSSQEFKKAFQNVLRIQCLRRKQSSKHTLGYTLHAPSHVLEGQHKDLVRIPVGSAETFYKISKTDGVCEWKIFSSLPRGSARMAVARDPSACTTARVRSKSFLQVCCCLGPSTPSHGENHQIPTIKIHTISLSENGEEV
Description: (§3) The cDNA clones encoding the α-1 adrenoreceptors (α-1a, α-1b, and α-1d) were obtained from TULCO (Triangle Universities Licensing Consortium, Research Triangle Park, NC) and inserted into the eukaryotic expression vector SnaB30. In this vector, expression of the adrenoreceptor gene is under the transcriptional control of an SV40 early promoter. Positive drug selection is provided by a neomycin-resistance gene. Mouse fibroblast cells (LTK) were transfected with the α1 expression plasmids and grown in Dulbecco's modified Eagle's medium (DMEM) containing 10% fetal calf serum and 30 µM G418. Stable G418-resistant parental lines were generated, with successful expression of adrenoreceptor protein monitored using radioligand binding techniques. Stable single cell clones derived from the parental lines were screened in adrenoreceptor binding assays to identify clones having high adrenoreceptor density. Roller bottle cultures of the cloned lines were used to provide cell membranes for subsequent adrenoreceptor binding characterization studies. A cell line containing the SnaB30 vector expressing the human erythropoietin gene served as a negative control.
(§4) For adrenoreceptor binding assays, large scale membrane preparations were utilized in which 6 million cells were seeded into small (450 cm^2) Corning tissue culture roller bottles. 200 mL of DMEM containing 10% fetal calf serum and 300 µM G418 were added to each roller bottle. A 95% air / 5% CO2 gas mixture (sterile) was injected into each roller bottle prior to sealing. The bottles were then incubated at 37 °C on a roller rack for 5 days. Cells were re-fed with fresh medium after 3 days in culture.
as §1, §2

[3] = molecular target: T3, α-1d adrenoreceptor (Rattus norvegicus, UniProt P23944); type: binding; conditions: read-out: Radioligand Binding (Ki, nM) 1d (Rat)
T3 sequence (P23944 1-561): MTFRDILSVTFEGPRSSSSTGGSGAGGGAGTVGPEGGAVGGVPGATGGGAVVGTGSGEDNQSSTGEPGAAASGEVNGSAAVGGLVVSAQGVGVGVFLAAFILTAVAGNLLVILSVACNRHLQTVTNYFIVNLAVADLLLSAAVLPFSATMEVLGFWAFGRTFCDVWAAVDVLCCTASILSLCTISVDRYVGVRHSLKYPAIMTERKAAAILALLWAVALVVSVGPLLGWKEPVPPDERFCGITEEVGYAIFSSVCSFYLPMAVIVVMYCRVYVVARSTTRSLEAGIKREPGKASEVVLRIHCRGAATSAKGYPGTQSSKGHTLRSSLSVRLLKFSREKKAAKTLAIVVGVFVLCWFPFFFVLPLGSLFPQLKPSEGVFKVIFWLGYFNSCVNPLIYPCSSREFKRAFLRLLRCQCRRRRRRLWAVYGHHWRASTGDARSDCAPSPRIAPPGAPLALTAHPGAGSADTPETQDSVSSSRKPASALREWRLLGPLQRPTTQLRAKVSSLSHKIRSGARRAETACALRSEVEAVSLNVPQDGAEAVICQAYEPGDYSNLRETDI
Description: as §3, §4, §1, §2

[4] = molecular target: T4, α-1b adrenoreceptor (Mesocricetus auratus, UniProt P18841); type: binding, hamster; conditions: read-out: Radioligand Binding (Ki, nM) 1b (Hamster)
T4 sequence (P18841 1-515): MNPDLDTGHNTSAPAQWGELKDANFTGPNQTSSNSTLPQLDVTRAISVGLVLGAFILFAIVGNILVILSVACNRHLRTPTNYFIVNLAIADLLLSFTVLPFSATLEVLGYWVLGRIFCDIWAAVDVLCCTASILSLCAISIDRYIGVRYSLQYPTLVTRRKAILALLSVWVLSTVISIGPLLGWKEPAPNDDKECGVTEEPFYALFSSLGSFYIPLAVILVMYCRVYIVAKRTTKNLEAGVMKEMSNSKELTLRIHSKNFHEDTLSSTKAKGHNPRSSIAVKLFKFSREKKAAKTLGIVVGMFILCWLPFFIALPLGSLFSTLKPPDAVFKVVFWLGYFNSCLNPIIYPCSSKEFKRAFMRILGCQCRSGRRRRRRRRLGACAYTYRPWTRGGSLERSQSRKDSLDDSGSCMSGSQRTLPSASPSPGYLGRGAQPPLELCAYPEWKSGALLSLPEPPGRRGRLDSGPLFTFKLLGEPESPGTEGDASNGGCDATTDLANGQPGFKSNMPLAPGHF
Description: as §3, §4, §1, §2

[5] = [3H]-prazosin radioligand, rat submaxillary gland membranes
[6] = [3H]-prazosin radioligand, cloned receptor in LTK cell membranes

With COc1cnc2sc3c(=O)n(CCCCN4CC[C@H]5c6c(OC)cccc6OC[C@@H]5C4)c(=O)[nH]c3c2n1 [Example 99, 3-[4-((4aS,10bR)-trans-10-Methoxy-1,3,4,4a,5,10b-hexahydro-2H-[1]-benzopyrano[3,4-c]pyrido-3-yl)butyl]-8-methoxy-pyrazino[2',3':4,5]thieno[3,2-d]pyrimidine-2,4(1H,3H)-dione hydrochloride] the Ki [1, 5] was 14.9 nM, the Ki [2, 6] was 1.73 nM and the Ki [3, 6] was 5.81 nM. It also gave a Ki [4, 6] of 57.1 nM.

Work on COc1ccc2sc3c(=O)n(CCCCN4CC[C@H]5c6c(OC)cccc6OC[C@@H]5C4)c(=O)[nH]c3c2n1 [Example 98, 3-[4-((4aS,10bR)-trans-10-Methoxy-1,3,4,4a,5,10b-hexahydro-2H-[1]-benzopyrano[3,4-c]pyrido-3-yl)butyl]-8-methoxy-pyrido[2',3':4,5]thieno[3,2-d]pyrimidine-2,4(1H,3H)-dione hydrochloride] yielded a Ki [1, 5] of 1.02 nM, a Ki [2, 6] of 0.121 nM and a Ki [3, 6] of 0.324 nM. For the same compound, the Ki [4, 6] was 2.65 nM.

In the case of COc1cnc2c(c1)sc1c(=O)n(CCCCN3C[C@H]4COc5cccc(OC)c5[C@@H]4C3)c(=O)[nH]c12 [Example 27, 3-[4-((3aS,9bR)-trans-9-Methoxy-1,2,3,3a,4,9b-hexahydro-[1]-benzopyrano[3,4-c]pyrrol-2-yl)butyl]-7-methoxy-pyrido[2',3':4,5]thieno[3,2-d]pyrimidine-2,4(1H,3H)-dione hydrochloride], the Ki [1, 5] is reported as 0.121 nM, the Ki [2, 6] is reported as 0.044 nM and the Ki [3, 6] is reported as 0.094 nM. It also gave a Ki [4, 6] of 0.974 nM.

With COc1cccc2c1[C@@H]1CCN(CCCCn3c(=O)[nH]c4c(sc5nc(Cl)ccc54)c3=O)C[C@H]1CO2 [Example 102, 3-[4-((4aS,10bR)-trans-10-Methoxy-1,3,4,4a,5,10b-hexahydro-2H-[1]-benzopyrano[3,4-c]pyrido-3-yl)butyl]-7-chloro-pyrido[3',2':4,5]thieno[3,2-d]pyrimidine-2,4(1H,3H)-dione hydrochloride] the Ki [1, 5] was 1.89 nM, the Ki [2, 6] was 0.113 nM and the Ki [3, 6] was 0.651 nM. It also gave a Ki [4, 6] of 6.26 nM.

In the case of COc1cccc2c1[C@@H]1CN(CCCCn3c(=O)[nH]c4c(sc5ccccc54)c3=O)C[C@@H]1CO2 [Example 22, 3-[4-((3aR,9bR)-cis-9-Methoxy-1,2,3,3a,4,9b-hexahydro-[1]-benzopyrano[3,4-c]pyrrol-2-yl)butyl]-[1]benzthieno[3,2-d]pyrimidine-2,4(1H,3H)-dione hydrochloride], the Ki [1, 5] is reported as 0.196 nM, the Ki [2, 6] is reported as 0.031 nM and the Ki [3, 6] is reported as 0.138 nM. The Ki [4, 6] was 1.16 nM.

Compound COc1ccc2c(c1)[C@@H]1CN(CCCCn3c(=O)[nH]c4c(sc5nccnc54)c3=O)C[C@@H]1CO2 (racemic) [Example 76, 3-[4-((±)-cis-8-Methoxy-1,2,3,3a,4,9b-hexahydro-[1]-benzopyrano[3,4-c]pyrrol-2-yl)butyl]-pyrazino[2',3':4,5]thieno[3,2-d]pyrimidine-2,4(1H,3H)-dione hydrochloride] has a Ki [1] of 11.7 nM, a Ki [2] of 6.21 nM and a Ki [3] of 12.9 nM. It also gave a Ki [4] of 78.6 nM.

For COc1cccc2c1[C@H]1CN(CCCCn3c(=O)[nH]c4c(sc5cccnc54)c3=O)C[C@@H]1CO2 (racemic) [Example 72, 3-[4-((±)-trans-9-Methoxy-1,2,3,3a,4,9b-hexahydro-[1]-benzopyrano[3,4-c]pyrrol-2-yl)butyl]-pyrido[2',3':4,5]thieno[3,2-d]pyrimidine-2,4(1H,3H)-dione dihydrochloride], the Ki [1] was 0.107 nM, the Ki [2] was 0.133 nM and the Ki [3] was 0.804 nM. For the same compound, the Ki [4] was 3.54 nM.

With COCCn1c(=O)n(CCCCN2C[C@@H]3COc4cccc(OC)c4[C@H]3C2)c(=O)c2sc3nccnc3c21 [Example 11, 3-[4-((3aR,9bS)-trans-9-Methoxy-1,2,3,3a,4,9b-hexahydro-[1]-benzopyrano[3,4-c]pyrrol-2-yl)butyl]-1-(2-Methoxyethyl)-pyrazino[2',3':4,5]thieno[3,2-d]pyrimidine-2,4(1H,3H)-dione hydrochloride] the Ki [1, 5] was 0.374 nM, the Ki [2, 6] was 0.243 nM and the Ki [3, 6] was 1.46 nM. It also gave a Ki [4, 6] of 3.78 nM.
